Laboratory results: patent US3972882A, “Sym.-triazine carbamates” (Toyama Chemical Co., Ltd., priority 1973, dated 1976)
Where two headings read alike, the source gives them in different places.

Legend:
carregeenin oedema = assay: Anti-carregeenin oedema activity (Winter method); type: in vivo, male rats
Excerpt: Anti-carregeenin oedema activity [According to the Winter method [Proc. Soc. exp. Biol. Med., 111 544 (1962)], a test compound suspended in the solution including 0.3 % of Tween-80 (a trade name of Atlas Powder Co., U.S.A.) was orally administered to a group of 5 male rats weighing 120 to 140 g.]
*1 Maximum oedema inhibition.
*2 Average oedema inhibition from 2 hrs to 5 hrs after the administration

[1] = test system: acetic acid-induced writhing; assay: Analgesic activity by the acetic acid-induced writhing test (K. Takagi et al. method); type: in vivo, ddY male mice
Excerpt: Analgesic activity by the acetic acid-induced writhing test [According to the K. Takagi et al. method [Journal of the Pharmaceutical Society of Japan, 78 553 (1958)], a test compound suspended in the solution including 0.5 % of Tween-80 was orally administered to a group of 8 ddY male mice weighing 20 to 24 g.]

toxicity test (LD50) = conditions: mouse, in vivo, mice
Excerpt: Therefore, the sym.-triazines of this invention are useful as an anti-inflammatory agent and analgesics.

[2] = Mus musculus, po, read-out: ED50

Compound	Inhibition of oedema, Peak (maximum oedema inhibition) (carregeenin oedema; 500 mg/kg p.o.) [%]	Inhibition of oedema, time of Peak (carregeenin oedema; 500 mg/kg p.o.) [h]	Inhibition of oedema, Mean (average oedema inhibition from 2 hrs to 5 hrs after the administration) (carregeenin oedema; 500 mg/kg p.o.) [%]	Inhibition (writhing) ([1]; 33.3 mg/kg p.o.) [%]	Inhibition (writhing) ([1]; 100 mg/kg p.o.) [%]	Inhibition of oedema, Peak (maximum oedema inhibition) (carregeenin oedema; 200 mg/kg p.o.) [%]	Inhibition of oedema, time of Peak (carregeenin oedema; 200 mg/kg p.o.) [h]	Inhibition of oedema, Mean (average oedema inhibition from 2 hrs to 5 hrs after the administration) (carregeenin oedema; 200 mg/kg p.o.) [%]	Inhibition of oedema, Peak (maximum oedema inhibition) (carregeenin oedema; 70 mg/kg p.o.) [%]	Inhibition of oedema, time of Peak (carregeenin oedema; 70 mg/kg p.o.) [h]	Inhibition of oedema, Mean (average oedema inhibition from 2 hrs to 5 hrs after the administration) (carregeenin oedema; 70 mg/kg p.o.) [%]	ED50 [1, 2] [mg/kg]	further results
ethyl 2,4-dimethoxy-sym.-triazinyldithiocarbamate [No. 7]	38.0	2	18.1	16.5	68.4								ED50 ([1]; p.o.): 67.5 mg/kg
methyl 2,4-diphenoxy-sym.-triazinylthioncarbamate [No. 9]		2				27.1	5	17.6					Inhibition of oedema, Mean (average oedema inhibition from 2 hrs to 5 hrs after the administration) (carregeenin oedema; 500 mg/kg p.o., listed as 7): 27.6%; Inhibition of oedema, Mean (average oedema inhibition from 2 hrs to 5 hrs after the administration) (carregeenin oedema; 500 mg/kg p.o., listed as 8): 23.5%; Inhibition of oedema, Peak (maximum oedema inhibition) (carregeenin oedema; 500 mg/kg p.o., listed as 7): 37.4%; Inhibition of oedema, Peak (maximum oedema inhibition) (carregeenin oedema; 500 mg/kg p.o., listed as 8): 32.2%
CCOC(=S)Nc1nc(O)nc(O)n1 [compound 10]	13.0	2											
CCOC(=S)Nc1nc(OC)nc(OC)n1 [compound 4]	64.5	2	50.6	94.4	96.9	45.9	2	35.4	23.9	2	21.8	6.6	Inhibition (writhing) ([1]; 3.7 mg/kg p.o.): 7.6%; Inhibition (writhing) ([1]; 11.1 mg/kg p.o.): 89.4%; LD50 (toxicity test (LD50); ip, read-out: LD50 i.p.): 490 mg/kg; LD50 (toxicity test (LD50); po, read-out: LD50 p.o.): 1020 mg/kg
COC(=O)Nc1nc(OC)nc(OC)n1 [No. 1, methyl 2,4-dimethoxy-sym.-triazinylcarbamate]	61.4	2	52.8		16.3	64.0	2	49.5	51.0	2	44.6	> 300	Inhibition (writhing) ([1]; 300 mg/kg p.o.): 34.7%
COC(=S)Nc1nc(OC)nc(OC)n1 [No. 3, methyl 2,4-dimethoxy-sym.-triazinylthioncarbamate]	78.3	2	61.0	69.4	77.2	68.8	2	46.7	37.2	2	24.7	8	Inhibition (writhing) ([1]; 3.7 mg/kg p.o.): 11.9%; Inhibition (writhing) ([1]; 11.1 mg/kg p.o.): 67.9%; LD50 (toxicity test (LD50); ip, read-out: LD50 i.p.): 500 mg/kg; LD50 (toxicity test (LD50); po, read-out: LD50 p.o.): 1050 mg/kg
methyl 2,4-diethoxy-sym.-triazinylthioncarbamate [No. 8]	16.3	3											
ethyl 2,4-dihydroxy-sym.-triazinylthioncarbamate [No. 10]	17.5	2											
ethyl 2,4-dimethoxy-sym.-triazinylthiolcarbamate [No. 11]					2.9								Inhibition (writhing) ([1]; 300 mg/kg p.o.): 50.3%; ED50 ([1]; p.o.): 300 mg/kg
